# Laboratory results published in patent publication US20250134874A1, “PHARMACEUTICAL FORMULATIONS COMPRISING 3-({[(4R)-7-{METHYL[4-(PROPAN-2-YL)PHENYL]AMINO}-3,4-DIHYDRO-2H-1-BENZOPYRAN-4-YL]METHYL}AMINO)PYRIDINE-4-CARBOXYLIC ACID” (TACHYON THERAPEUTICS, INC., priority 2021, published 2025).
# Tested on: 301 cancer cell lines from different tumor types (OncoPanel; HD Biosciences)
# Assay: 2D cell viability inhibition assay (CellTiter-Glo) in cancer cell line panel
# Assay type: cell-based
# Set-up: key to AUC: AUC as fraction of the no-inhibition area (dose range × 0–100 % of control)
# Details: for Emax: in %
# Protocol: In a larger screening study, compound 1 was evaluated across a broad cancer cell line panel (OncoPanel; HD Biosciences) composed of 301 cancer cell lines from different tumor types.
# 2D cell viability inhibition assays were performed in multiwell plates seeded with cells from the panel. After seeding, the plates were cultured overnight in a humidified incubator at 37° C. to promote adherence. Assays were initiated in individual wells by adding either DMSO as a vehicle control, growth media as a blank, or serially diluted compound 1 (10 μM to 0.0005 μM with 1:3 serial dilution). Cultures were incubated for 168 hours after which the number of viable cells in each test well was assessed using the CellTiter-Glo® Luminescent Cell Viability Assay. Luminescence readouts were performed using an EnVision® Multilabel Reader and the compound 1 readouts were normalized to the DMSO control readouts, expressed as a percent of the control. Outliers were flagged out by visual inspection. Percent of control was plotted against the corresponding compound 1 concentration and the absolute IC50 value was determined using four-parameter logistic non-linear regression as the concentration where inhibition was 50% of the control. For maximum inhibition <50%, the absolute IC50 was reported as >10. In addition to EC50 and IC50, AUC was determined and was normalized to the area corresponding to theoretical no-inhibition (the rectangular area defined by the compound dose range and 0 to 100 in y). Emax was recorded as the minimum in y with the compound dose range. For those cell lines where Emax>40, EC50 was manually set to 10 μM. A hierarchical clustering algorithm based on Euclidean distance between the standardized input values and “Ward.D” method as implemented in R hclust function was used to visualize the compound 1 cellular potency data. The sensitive/moderate/resistant calls for each cell line was determined by visually inspecting the resulting clustering dendrogram. All the analyses were done in R Core Team.
# [1] = Homo sapiens, 143B, 143B cell line
# [2] = Homo sapiens, 647-V, 647V cell line
# [3] = Homo sapiens, 786-0, 7860 cell line
# [4] = Homo sapiens, A101D, A101D cell line
# [5] = Homo sapiens, A549, A549 cell line
# [6] = Homo sapiens, A2058, A2058 cell line
# [7] = Homo sapiens, A2780, A2780 cell line
# [8] = Homo sapiens, A-375, A375 cell line
# [9] = Homo sapiens, ACHN, ACHN cell line
# [10] = Homo sapiens, AGS, AGS cell line
# [11] = Homo sapiens, ASPC1, ASPC1 cell line
# [12] = Homo sapiens, AZ-521, AZ521 cell line
# [13] = Homo sapiens, BFTC-905, BFTC905 cell line
# [14] = Homo sapiens, BT-549, BT549 cell line
# [15] = Homo sapiens, BXPC-3, BXPC3 cell line
# [16] = Homo sapiens, C32, C32 cell line
# [17] = Homo sapiens, CAKI-1, CAKI1 cell line
# [18] = Homo sapiens, CFPAC-1, CFPAC1 cell line
# [19] = Homo sapiens, CHL-1, CHL1 cell line
# [20] = Homo sapiens, COLO 205, COLO205 cell line
# [21] = Homo sapiens, COLO-320-HSR, COLO320HSR cell line
# [22] = Homo sapiens, COLO-679, COLO679 cell line
# [23] = Homo sapiens, COLO-680N, COLO680N cell line
# [24] = Homo sapiens, COLO-741, COLO741 cell line
# [25] = Homo sapiens, COR-L279, CORL279 cell line
structure (smiles),measurement,setting,value
"CC(C)c1ccc(N(C)c2ccc3c(c2)OCC[C@H]3CNc2cnccc2C(=O)O)cc1 [Compound 1, 3-({[(4R)-7-{methyl[4-(propan-2-yl)phenyl]amino}-3,4-dihydro-2H-1-benzopyran-4-yl]methyl}amino)pyridine-4-carboxylic acid]",AUC,HCC1599 cell line,0.4639
same,Emax,HCC1599 cell line,32.7
same,AUC,HCC1806 cell line,0.5325
same,Emax,HCC1806 cell line,36.87
same,AUC,"HCC1937, breast, ductal carcinoma, 168 hours",0.9094
same,AUC,HCC1954 cell line,0.5912
same,AUC,HCC2935 cell line,0.6922
same,AUC,HCT15 cell line,0.1838
same,Emax,HCT15 cell line,4.541
same,AUC,HCT116 cell line,0.5356
same,AUC,HEL cell line,0.5268
same,Emax,HEL cell line,28.89
same,AUC,HEP3B217 cell line,0.6448
same,IC50,HEP3B217 cell line,129 nM
same,AUC,HEPG2 cell line,0.6086
same,AUC,HL60 cell line,0.3703
same,Emax,HL60 cell line,9.446
same,AUC,HLE cell line,0.3839
same,Emax,HLE cell line,7.876
same,AUC,HLF cell line,0.4657
same,Emax,HLF cell line,18.25
same,EC50,"HLF, HLF cell line",11.5 nM
same,IC50,"HLF, HLF cell line",18 nM
same,AUC,HMCB cell line,0.5041
same,Emax,HMCB cell line,32.25
same,AUC,HPAC cell line,0.3965
same,AUC,HS294T cell line,0.6005
same,AUC,HS578T cell line,0.5373
same,Emax,HS578T cell line,32.75
same,AUC,"HS688AT, skin, NS, 168 hours",1.105
same,AUC,"HS695T, skin, NS, 168 hours",0.9238
same,AUC,"HS739T, breast, NS, 168 hours",0.8686
same,AUC,"HS839T, skin, NS, 168 hours",1.097
same,AUC,"HS852T, skin, NS, 168 hours",0.883
same,AUC,HSC2 cell line,0.4511
same,Emax,HSC2 cell line,26.01
same,AUC,HSC3 cell line,0.6313
same,AUC,HSC4 cell line,0.4347
same,Emax,HSC4 cell line,23.28
same,AUC,HT29 cell line,0.5741
same,AUC,HT55 cell line,0.4704
same,Emax,HT55 cell line,22.172
same,AUC,"HT144, skin, NS, 168 hours",0.8912
same,AUC,HT1080 cell line,0.5438
same,Emax,HT1080 cell line,29.74
same,AUC,HT1376 cell line,0.5519
same,AUC,HUH1 cell line,0.4145
same,Emax,HUH1 cell line,11.68
same,AUC,HUH7 cell line,0.3926
same,Emax,HUH7 cell line,7.054
same,AUC,"HUH28, biliary tract, NS, 168 hours",0.9862
same,AUC,HUTU80 cell line,0.3016
same,EC50,[1],13.9 nM
same,IC50,[1],14.4 nM
same,EC50,[2],11.2 nM
same,IC50,[2],12.2 nM
same,EC50,[3],11.7 nM
same,IC50,[3],22.5 nM
same,EC50,[4],6.91 nM
same,IC50,[4],11 nM
same,IC50,"Homo sapiens, A204, 168 h, A204, soft tissue, NS, 168 hours",> 10000 nM
same,EC50,[5],18.5 nM
same,IC50,[5],32.4 nM
same,EC50,[6],28.1 nM
same,IC50,[6],46.8 nM
same,EC50,[7],2.1 nM
same,IC50,[7],2.14 nM
same,EC50,[8],7.62 nM
same,IC50,[8],10.6 nM
same,EC50,[9],30.3 nM
same,IC50,[9],34.7 nM
same,EC50,[10],5.18 nM
same,IC50,[10],6.19 nM
same,EC50,[11],18.9 nM
same,IC50,[11],66.8 nM
same,EC50,[12],3.84 nM
same,IC50,[12],4.19 nM
same,EC50,[13],8.93 nM
same,IC50,[13],9.91 nM
same,IC50,"Homo sapiens, BT-20, 168 h, BT20, breast, ductal carcinoma, 168 hours",> 10000 nM
same,IC50,"Homo sapiens, BT-474, 168 h, BT474, breast, ductal carcinoma, 168 hours",> 10000 nM
same,EC50,[14],5.84 nM
same,IC50,[14],9.98 nM
same,EC50,[15],8.45 nM
same,IC50,[15],19.4 nM
same,IC50,"Homo sapiens, C2BBe1, 168 h, C2BBE1, large intestine, adenocarcinoma, 168 hours",> 10000 nM
same,EC50,[16],5.18 nM
same,IC50,[16],5.36 nM
same,EC50,[17],≥ 10000 nM
same,IC50,[17],4.43 nM
same,IC50,"Homo sapiens, CAL-27, 168 h, CAL27, upper aerodigestive tract, squamous cell carcinoma, 168 hours",> 10000 nM
same,IC50,"Homo sapiens, CAPAN-1, CAPAN1 cell line",116 nM
same,IC50,"Homo sapiens, CCF-STTG1, 168 h, CCFSTTG1, central nervous system, astrocytoma, 168 hours",> 10000 nM
same,EC50,[18],11.3 nM
same,IC50,[18],15.3 nM
same,EC50,[19],4.68 nM
same,IC50,[19],6.08 nM
same,EC50,[20],5.97 nM
same,IC50,[20],11.5 nM
same,EC50,[21],4.46 nM
same,IC50,[21],4.61 nM
same,EC50,[22],2340 nM
same,IC50,[22],2040 nM
same,EC50,[23],4.79 nM
same,IC50,[23],6.97 nM
same,EC50,[24],6.86 nM
same,IC50,[24],10.4 nM
same,IC50,"Homo sapiens, COLO-829, COLO829 cell line",> 10000 nM
same,EC50,[25],4.23 nM
same,IC50,[25],4.34 nM
same,IC50,"Homo sapiens, Calu-1, 168 h, CALU1, lung, squamous cell carcinoma, 168 hours",> 10000 nM
same,IC50,"Homo sapiens, Calu-3, 168 h, CALU3, lung, adenocarcinoma, 168 hours",> 10000 nM
same,EC50,"Homo sapiens, Calu-6, CALU6 cell line",11.5 nM
